From DBAASP
In brackets after ≈: the same amount, converted by molar mass. One block for each compound: values may come before it.

Tests used:
Assay in all cases: ≥ marks a high value that may be exact or a test limit, other limits are often not marked, values filed in µg/mL are converted to µM
[1] = test system: Escherichia coli NCTC 10418
[2] = test system: Candida albicans NCYC 1467
[3] = test system: Pseudomonas aeruginosa ATCC 27853
[4] = test system: Staphylococcus aureus NCTC 10788
[5] = test system: Staphylococcus aureus NCTC 12493
[6] = test system: Escherichia coli B
[7] = test system: Staphylococcus aureus
[8] = test system: Candida albicans F7-39/IDE99
[9] = test system: Bacillus subtilis 168
[10] = test system: Pseudomonas aeruginosa
[11] = test system: Bacillus subtilis
[12] = test system: Escherichia coli
[13] = test system: Escherichia coli ATCC 25922
[14] = test system: Pseudomonas aeruginosa CMCCB 10104
[15] = test system: Staphylococcus aureus ATCC 25923
[16] = test system: Candida albicans ATCC 2002
[17] = test system: Staphylococcus aureus ATCC 6538P
[18] = test system: Escherichia coli JM109
[19] = test system: Escherichia coli W160-37
[20] = test system: Staphylococcus epidermidis ATCC 12228
[21] = test system: Enterococcus faecalis ATCC 29212
[22] = test system: Staphylococcus aureus ATCC 29213
[23] = test system: Salmonella enterica subsp. enterica serovar Pullorum C79-13
[24] = test system: Salmonella enterica subsp. enterica serovar Typhimurium C77-31
[25] = test system: Escherichia coli UB1005
[26] = test system: Acinetobacter baumannii

SMILES: CC[C@H](C)[C@H](NC(=O)CNC(=O)[C@@H](NC(=O)[C@H](C)NC(=O)[C@@H](NC(=O)[C@H](CCCCN)NC(=O)[C@@H]1CCCN1C(=O)[C@@H](NC(=O)[C@H](CC(C)C)NC(=O)[C@H](CO)NC(=O)[C@H](CC(C)C)NC(=O)[C@@H](N)Cc1ccccc1)[C@@H](C)CC)[C@@H](C)CC)[C@@H](C)O)C(=O)N[C@@H](C)C(=O)N[C@@H](C)C(=O)N[C@@H](CC(C)C)C(=O)N[C@@H](C)C(=O)N[C@@H](CCCCN)C(=O)N[C@@H](Cc1cnc[nH]1)C(=O)N[C@@H](CC(C)C)C(N)=O [FLSLIPKIATGIAALAKHL]
- MIC [1]: 8 µM (≈ 15.8 µg/mL)
- MIC [2]: 2 µM (≈ 3.95 µg/mL)
- MIC [3]: 32 µM (≈ 63.2 µg/mL)
- MIC [4]: 2 µM (≈ 3.95 µg/mL)
- MIC [5]: 2 µM (≈ 3.95 µg/mL)

SMILES: CC[C@H](C)[C@H](NC(=O)[C@H](Cc1cnc[nH]1)NC(=O)[C@H](CCCCN)NC(=O)[C@H](CC(C)C)NC(=O)[C@H](CC(C)C)NC(=O)[C@H](CO)NC(=O)[C@H](CC(C)C)NC(=O)[C@H](Cc1c[nH]c2ccccc12)NC(=O)[C@H](CCCCN)NC(=O)CN)C(=O)N[C@@H](CC(C)C)C(=O)N[C@@H](CCCCN)C(N)=O [GKWLSLLKHILK]
- MIC [6]: 1.8 µM (≈ 2.58 µg/mL)
- MIC [7]: 5.5 µM (≈ 7.89 µg/mL)
- MIC [8]: 8.7 µM (≈ 12.5 µg/mL)
- MIC [9]: 0.9 µM (≈ 1.29 µg/mL)
- MIC [10]: 31.7 µM (≈ 45.5 µg/mL)

SMILES: CC[C@H](C)[C@H](NC(=O)[C@H](Cc1cnc[nH]1)NC(=O)[C@H](CCCCN)NC(=O)[C@H](CC(C)C)NC(=O)[C@H](CC(C)C)NC(=O)[C@H](CO)NC(=O)[C@H](Cc1c[nH]c2ccccc12)NC(=O)[C@H](Cc1c[nH]c2ccccc12)NC(=O)[C@H](CCCCN)NC(=O)CN)C(=O)N[C@@H](CC(C)C)C(=O)N[C@@H](CCCCN)C(N)=O [GKWWSLLKHILK]
- MIC [7]: 4.7 µM (≈ 7.09 µg/mL)
- MIC [11]: 0.6 µM (≈ 0.905 µg/mL)
- MIC [8]: 5.3 µM (≈ 7.99 µg/mL)
- MIC [10]: 50 µM (≈ 75.4 µg/mL)
- MIC [12]: 1.6 µM (≈ 2.41 µg/mL)

SMILES: CC[C@H](C)[C@H](NC(=O)[C@H](CC(C)C)NC(=O)[C@H](CCCCN)NC(=O)[C@H](C)NC(=O)[C@H](C)NC(=O)CNC(=O)[C@H](CCCCN)NC(=O)[C@@H](NC(=O)[C@H](CC(C)C)NC(=O)[C@@H](NC(=O)[C@H](Cc1ccccc1)NC(=O)[C@H](CC(C)C)NC(=O)CN)[C@@H](C)O)[C@@H](C)CC)C(=O)NCC(=O)N[C@@H](CCCCN)C(=O)N[C@H](C(=O)N[C@H](C(=O)N[C@@H](C)C(=O)N[C@@H](CCCCN)C(=O)N[C@@H](CCC(=O)O)C(=O)N[C@@H](C)C(=O)NCC(=O)N[C@@H](CCCCN)C(=O)N[C@H](C(=O)NCC(=O)N[C@@H](CCCCN)C(=O)N[C@@H](CC(C)C)C(=O)N[C@@H](CCC(=O)O)C(=O)N[C@@H](CCSC)C(=O)N[C@@H](C)C(=O)N[C@H]1CSSC[C@@H](C(=O)O)NC(=O)[C@H](CCC(N)=O)NC(=O)[C@H](CC(N)=O)NC(=O)[C@H]([C@@H](C)O)NC(=O)[C@H]([C@@H](C)CC)NC(=O)[C@H](CCCCN)NC1=O)[C@@H](C)O)[C@@H](C)O)[C@@H](C)O [GLFTLIKGAAKLIGKTTAKEAGKTGKLEMACKITNQC]
- MIC [13]: 1.15 µM (≈ 4.4 µg/mL)
- MIC [14]: 0.573 µM (≈ 2.2 µg/mL)
- MIC [15]: 0.573 µM (≈ 2.2 µg/mL)
- MIC [16]: 1.15 µM (≈ 4.4 µg/mL)

SMILES: CC[C@H](C)[C@H](NC(=O)[C@H](CC(C)C)NC(=O)[C@H](CCC(N)=O)NC(=O)[C@@H](NC(=O)[C@H](C)NC(=O)CNC(=O)[C@H](CCCCN)NC(=O)[C@H](CC(C)C)NC(=O)[C@H](CC(C)C)NC(=O)[C@@H](NC(=O)[C@H](Cc1ccccc1)NC(=O)[C@@H](NC(=O)CN)C(C)C)[C@@H](C)O)[C@@H](C)O)C(=O)NCC(=O)N[C@@H](CCCCN)C(=O)N[C@H](C(=O)N[C@@H](CC(C)C)C(=O)NCC(=O)N[C@@H](CCCCN)C(=O)N[C@@H](CCC(=O)O)C(=O)N[C@@H](CC(C)C)C(=O)NCC(=O)N[C@@H](CCCCN)C(=O)N[C@H](C(=O)NCC(=O)N[C@@H](CC(C)C)C(=O)N[C@@H](CCC(=O)O)C(=O)N[C@@H](CC(C)C)C(=O)N[C@@H](CCSC)C(=O)N[C@@H](C)C(=O)N[C@H]1CSSC[C@@H](C(=O)O)NC(=O)[C@H](CCC(N)=O)NC(=O)[C@H](CC(N)=O)NC(=O)[C@H]([C@@H](C)O)NC(=O)[C@H]([C@@H](C)CC)NC(=O)[C@H](CCCCN)NC1=O)[C@@H](C)O)[C@@H](C)O [GVFTLLKGATQLIGKTLGKELGKTGLELMACKITNQC]
- MIC [13]: 2.04 µM (≈ 7.9 µg/mL)
- MIC [14]: 2.04 µM (≈ 7.9 µg/mL)
- MIC [15]: 2.04 µM (≈ 7.9 µg/mL)
- MIC [16]: 4.07 µM (≈ 15.8 µg/mL)

SMILES: CC[C@H](C)[C@H](NC(=O)[C@H](C)NC(=O)[C@H](CC(C)C)NC(=O)[C@H](CS)NC(=O)[C@@H](N)Cc1cnc[nH]1)C(=O)NCC(=O)N[C@@H](CCCN=C(N)N)C(=O)N[C@@H](CCCN=C(N)N)C(N)=O [HCLAIGRR]
- MIC [7]: > 69.2 µM
- MIC [17]: 9.73 µM
- MIC [18]: 25.9 µM

Next, values leading:

- MIC [7]: 18.8 µM (≈ 33.8 µg/mL)
- MIC [19]: 8 µM (≈ 14.4 µg/mL)
SMILES: CC[C@H](C)[C@H](N)C(=O)N[C@H](C(=O)N[C@@H](CO)C(=O)N[C@H](C(=O)N[C@H](C(=O)NCC(=O)N[C@@H](CCCCN)C(=O)N[C@@H](CC(C)C)C(=O)N[C@H](C(=O)N[C@@H](CCCCN)C(=O)N[C@@H](Cc1c[nH]c2ccccc12)C(=O)N[C@H](C(=O)N[C@H](C(=O)N[C@@H](CC(=O)O)C(=O)N[C@H](C(=O)N[C@H](C(=O)O)C(C)C)[C@@H](C)O)[C@@H](C)CC)[C@@H](C)CC)C(C)C)[C@@H](C)CC)[C@@H](C)O)[C@@H](C)CC [IISTIGKLVKWIIDTV]

- MIC [18]: 2 µM (≈ 3.66 µg/mL)
SMILES: CC[C@H](C)[C@H](N)C(=O)N[C@@H](CC(C)C)C(=O)N1CCC[C@H]1C(=O)N[C@@H](Cc1c[nH]c2ccccc12)C(=O)N[C@@H](CCCCN)C(=O)N[C@@H](Cc1c[nH]c2ccccc12)C(=O)N1CCC[C@H]1C(=O)N[C@@H](Cc1ccccc1)C(=O)N[C@@H](Cc1ccccc1)C(=O)N1CCC[C@H]1C(=O)N[C@@H](Cc1c[nH]c2ccccc12)C(=O)N[C@@H](CCCN=C(N)N)C(=O)N[C@@H](CCCN=C(N)N)C(N)=O [ILPWKWPFFPWRR]

- MIC [13]: 32 µM (≈ 66.4 µg/mL)
- MIC [20]: > 128 µM
- MIC [21]: > 128 µM
- MIC [22]: > 128 µM
- MIC [23]: 16 µM (≈ 33.2 µg/mL)
- MIC [24]: ≥ 64 µM
SMILES: NCCCC[C@H](NC(=O)CNC(=O)[C@H](CC(N)=O)NC(=O)[C@H](CCC(=O)O)NC(=O)[C@H](Cc1c[nH]c2ccccc12)NC(=O)[C@H](CCCCN)NC(=O)[C@H](Cc1c[nH]c2ccccc12)NC(=O)[C@H](CCCCN)NC(=O)[C@@H](N)Cc1c[nH]c2ccccc12)C(=O)N[C@@H](Cc1c[nH]c2ccccc12)C(=O)N[C@@H](CCCCN)C(=O)N[C@@H](Cc1c[nH]c2ccccc12)C(=O)N[C@@H](CCC(N)=O)C(=O)N[C@@H](Cc1c[nH]c2ccccc12)C(=O)O [WKWKWENGKWKWQW]

- MIC [25]: 2 µM (≈ 3.51 µg/mL)
- MIC [7]: 4 µM (≈ 7.02 µg/mL)
- MIC [13]: 4 µM (≈ 7.02 µg/mL)
- MIC [26]: 8 µM (≈ 14 µg/mL)
- MIC [10]: 32 µM (≈ 56.2 µg/mL)
- MIC [20]: 4 µM (≈ 7.02 µg/mL)
- MIC [15]: 4 µM (≈ 7.02 µg/mL)
- MIC [22]: 2 µM (≈ 3.51 µg/mL)
- MIC [24]: 4 µM (≈ 7.02 µg/mL)
- MIC [12]: 4 µM (≈ 7.02 µg/mL)
SMILES: CC(C)[C@H](NC(=O)[C@H](CCCN=C(N)N)NC(=O)[C@H](Cc1c[nH]c2ccccc12)NC(=O)[C@H](CCCN=C(N)N)NC(=O)[C@@H](NC(=O)[C@H](CCCCN)NC(=O)[C@H](Cc1c[nH]c2ccccc12)NC(=O)[C@H](CCCN=C(N)N)NC(=O)[C@@H](NC(=O)[C@H](CCCN=C(N)N)NC(=O)[C@@H](N)Cc1c[nH]c2ccccc12)C(C)C)[C@@H](C)O)C(=O)N[C@@H](CCCCN)C(N)=O [WRVRWKTRWRVK]
